In patent US12016847B2, “Methods of treating prostate cancer” (Bristol-Myers Squibb Company, priority 2021, dated 2024):

Experiments:
[1] = system: LNCaP cells; experiment: Proliferation assay (Cell Titer-Glo), LNCaP cells; type: cell-based, human; conditions: 3 days of treatment, at 1 uM, related to Day 0 and DMSO
Method: (§1) VCaP, LNCaP, 22Rv.1, DU145 and PC3 cancer cell lines were obtained from ATCC. VCaP were cultured in DMEM media supplemented with 8% FBS, LNCaP, 22Rv.1 and DU145 were cultured in RPMI1640 media supplemented with 10% FBS, and PC3 were cultured in F12K media supplemented with 10% FBS.
(§2) Cells were plated in a 96-well format and were allowed to adhere 24 h before treatment. Drugs were titrated 1:3 from 1 μM to 0.1 nM with 9 doses in triplicate. Cell proliferation was measured on the day of treatment (Day 0) and on Day 3 using Cell Titer-Glo reagent (Promega) according to the manufacturer's instructions. Cell growth normalized to the DMSO vehicle control and to Day 0 was fitted by nonlinear regression using GraphPad Prism 7.03 (GraphPad Software, Inc.).

[2] = system: MYC; experiment: Gene expression analysis (qPCR), MYC in VCaP cells; type: cell-based; conditions: 48 h
Method: as §1
(§3) Cells were plated in a 6-well format and were allowed to adhere 24 h before treatment. Cells were treated for 48 h before collecting them. RNA was purified from cells using the RNeasy kit (Qiagen) according to the manufacturer's instructions. Quantitative RTPCR was performed using the TaqMan assay (Thermo Fisher Scientific) on the ABI QuantStudio 7 Flex Real-Time PCR System.

[3] = system: HEXIM1; experiment: Gene expression analysis (qPCR), HEXIM1 in 22Rv.1 cells; type: cell-based; conditions: 48 h
Method: as §1, §3

[4] = system: KLK3; experiment: Gene expression analysis (qPCR), KLK3 in LNCaP cells; type: cell-based, human; conditions: 48 h
Method: as §1, §3

[5] = system: KLK3; experiment: Gene expression analysis (qPCR), KLK3 in 22Rv.1 cells; type: cell-based; conditions: 48 h
Method: as §1, §3

[6] = system: Neuroendocrine prostate cancer models; experiment: Proliferation assay, all Neuroendocrine prostate cancer models tested (summary); type: cell-based; conditions: DU145 and PC3 models, summary statement
Method: as §1, §2

[7] = system: HEXIM1; experiment: Gene expression analysis (qPCR), HEXIM1 in LNCaP cells; type: cell-based, human; conditions: 48 h
Method: as §1, §3

[8] = system: MYC; experiment: Gene expression analysis (qPCR), MYC in 22Rv.1 cells; type: cell-based; conditions: 48 h
Method: as §1, §3

[9] = system: TMPRSS2; experiment: Gene expression analysis (qPCR), TMPRSS2 in 22Rv.1 cells; type: cell-based; conditions: 48 h
Method: as §1, §3

[10] = system: VCaP cells; experiment: Proliferation assay (Cell Titer-Glo), VCaP cells; type: cell-based; conditions: 3 days
Method: as §1, §2

[11] = system: PC3 cells; experiment: Proliferation assay (Cell Titer-Glo), PC3 cells; type: cell-based; conditions: 3 days
Method: as §1, §2

[12] = system: DU145 cells; experiment: Proliferation assay (Cell Titer-Glo), DU145 cells; type: cell-based; conditions: 3 days
Method: as §1, §2

[13] = system: HEXIM1; experiment: Gene expression analysis (qPCR), HEXIM1 in VCaP cells; type: cell-based; conditions: 48 h
Method: as §1, §3

[14] = system: KLK3; experiment: Gene expression analysis (qPCR), KLK3 in VCaP cells; type: cell-based; conditions: 48 h
Method: as §1, §3

[15] = system: TMPRSS2; experiment: Gene expression analysis (qPCR), TMPRSS2 in VCaP cells; type: cell-based; conditions: 48 h
Method: as §1, §3

[16] = system: MYC; experiment: Gene expression analysis (qPCR), MYC in LNCaP cells; type: cell-based, human; conditions: 48 h
Method: as §1, §3

[17] = system: 22Rv.1 cells; experiment: Proliferation assay (Cell Titer-Glo), 22Rv.1 cells; type: cell-based; conditions: Homo sapiens, 22Rv1, 72 h, 3 days
Method: as §1, §2

IC50 ([11]; Homo sapiens, PC-3, 72 h): 4.1 nM | IC50 [17]: 1.7 nM
Structure (SMILES): Cc1nnn(C)c1-c1cnc2c3ccc(C(C)(C)O)cc3n([C@H](c3ccccc3)C3CCOCC3)c2c1 [Compound A, 2-[3-(1,4-dimethyl-1H-1,2,3-triazol-5-yl)-5-[(S)-(oxan-4-yl)(phenyl)methyl]-5H-pyrido[3,2-b]indol-7-yl]propan-2-ol]
growth arrest of LNCaP cells [1]: 100% | reduction in MYC expression ([2]; 4 nM): 91.4% | MYC downregulation ([2]; 40 nM): 95.7% | induction of HEXIM1 ([3]; 4 nM): 31% | upregulation of HEXIM1 ([3]; 40 nM): 91.5% | downregulation of KLK3 ([4]; 4 nM): 58.8% | downregulation of KLK3 ([4]; 40 nM): 92.0% | downregulation of KLK3 ([5]; 4 nM): 99.9% | downregulation of KLK3 ([5]; 40 nM): 99.8% | reduction of cell proliferation in all Neuroendocrine prostate cancer models tested [6]: ≥ 61.9% | upregulation of HEXIM1 ([7]; 4 nM): 446.8% | upregulation of HEXIM1 ([7]; 40 nM): 533.3% | downregulation of MYC ([8]; 4 nM): 98.5% | downregulation of MYC ([8]; 40 nM): 99.3% | reduction of TMPRSS2 compared to DMSO ([9]; 4 nM): 97.0% | reduction of TMPRSS2 compared to DMSO ([9]; 40 nM): 97.8% | growth arrest of VCaP proliferation ([10]; at 0.1 uM, related to Day 0 and DMSO): 100% | cytotoxic effect on VCaP cells ([10]; at the highest concentrations): cytotoxic effects | reduction of PC3 proliferation [11]: 67% | reduction of DU145 proliferation [12]: 61.9% | HEXIM1 upregulated compared to DMSO ([13]; 4 nM): 968.0% | HEXIM1 upregulated compared to DMSO ([13]; 40 nM): 1257.5% | downregulation of KLK3 compared to DMSO ([14]; 4 nM): 96.9% | downregulation of KLK3 compared to DMSO ([14]; 40 nM): 99.4% | downregulation of TMPRSS2 ([15]; 4 nM): 32.8% | downregulation of TMPRSS2 ([15]; 40 nM): 51.9% | downregulation of MYC ([16]; 4 nM): 84.1% | downregulation of MYC ([16]; 40 nM): 93.6%
